These results are taken from the RepoRT retention time repository (doi:10.1021/es4044374).

The structures appear in SMILES notation.

A short description of the data set: RP, Waters XBridge C18, 50 × 2.1 mm, 3.5 µm, 30 °C, 0.2 mL/min, estimated dead time 0.55 min; A: water + 0.1% formic acid, pH 3; B: methanol + 0.1% formic acid, pH 3; gradient (min/%B) 0/10 4/50 17/95 25/95 25.1/10 30/10. The conditions noted are these: stereoisomer not certain.
In the case of `CCCC(C)C1(CC)C(=O)NC(=S)NC1=O` (stereo unspecified) [Thiopental], the LC retention time is 9 min.

Take `CCN1CCCC1CNC(=O)c1cc(S(=O)(=O)CC)c(N)cc1OC` (stereo unspecified) [Amisulpride]: the LC retention time was 3.8 min.

As for `CC(C)NCC(O)c1ccc(NS(C)(=O)=O)cc1` (stereo unspecified) [Sotalol], the LC retention time is 1.6 min.

Take `COCC(=O)N(c1c(C)cccc1C)C(C)C(=O)OC` (stereo unspecified) [Metalaxyl]: the LC retention time was 8.7 min.

With `CCNc1nc(Cl)nc(NC(C)(C)C#N)n1` [Cyanazine], the LC retention time was 6.6 min.

On to `CC(C)OC(=O)C(C)(C)Oc1ccc(C(=O)c2ccc(Cl)cc2)cc1` [Fenofibrate], for which the LC retention time was 15.7 min.

Consider `O=C(O)c1cccc(Oc2ccccc2)c1` [3-Phenoxybenzoic acid], for which the LC retention time is 11.5 min.

With `CCCN(CCC)C(=O)SCc1ccccc1` [Prosulfocarb], the LC retention time was 14.4 min.

As for `COC=C(C(=O)OC)c1ccccc1Oc1cc(Oc2ccccc2C#N)ncn1` [Azoxystrobin], the LC retention time was 9.9 min.

Turning to `N#Cc1c(Cl)cccc1Cl` [Dichlobenil], the LC retention time is 8.5 min.

For `CN(C)C(=N)N=C(N)N` [Metformin], the LC retention time was 0.8 min.

As for `CC(C)=NOCCOC(=O)C(C)Oc1ccc(Oc2cnc3cc(Cl)ccc3n2)cc1` (stereo unspecified) [Propaquizafop], the LC retention time is 15 min.

`CC(C)(c1ccc(O)cc1)c1ccc(O)cc1` [Bisphenol A]: the LC retention time is 14 min.

Regarding `CC(C)NCC(O)COc1ccc(CC(=O)O)cc1` (stereo unspecified) [Atenolol acid], the LC retention time was 3.8 min.

`COc1ccnc(CS(=O)c2nc3ccc(OC(F)F)cc3[nH]2)c1OC` (stereo unspecified) [Pantoprazole]: the LC retention time is 6.6 min.

For the compound `COc1nc(NC(C)C)nc(NC(C)C)n1` [Prometon], the LC retention time was 6.7 min.

For the compound `CSc1nc(NC2CC2)nc(NC(C)(C)C)n1` [Irgarol], the LC retention time is 9.2 min.

With `Nc1c(Cl)c(F)nc(OCC(=O)O)c1Cl` [Fluroxypyr], the LC retention time is 6.9 min.

`O=C(O)COc1ccc(Cl)cc1Cl` [2,4-D]: the LC retention time is 9.1 min.

For the compound `CN1CCC23c4c5ccc(O)c4OC2C(O)C=CC3C1C5` (stereo unspecified) [Morphine], the LC retention time is 1.1 min.

As for `CC(C)c1nc(CN(C)C(=O)NC(C(=O)NC(Cc2ccccc2)CC(O)C(Cc2ccccc2)NC(=O)OCc2cncs2)C(C)C)cs1` (stereo unspecified) [Ritonavir], the LC retention time was 13.6 min.

With `Cc1cc(C)nc(NS(=O)(=O)c2ccc(N)cc2)n1` [Sulfamethazine], the LC retention time was 3.9 min.

For the compound `CCOC(=O)C1CC(=O)C(=C(O)C2CC2)C(=O)C1` (stereo unspecified) [Trinexapac-ethyl], the LC retention time is 8.9 min.

`CNC(C)C(=O)c1ccc(C)cc1` (stereo unspecified) [Mephedrone]: the LC retention time was 4.3 min.

Turning to `O=C1CCC2(O)C3Cc4ccc(O)c5c4C2(CCN3CC2CC2)C1O5` (stereo unspecified) [Naltrexone], the LC retention time was 3.1 min.

Turning to `O=C(O)COc1nc(Cl)c(Cl)cc1Cl` [Triclopyr], the LC retention time is 10.3 min.

Regarding `CC1CC2C3CCC4=CC(=O)C=CC4(C)C3(F)C(O)CC2(C)C1(O)C(=O)CO` (stereo unspecified) [Dexamethasone], the LC retention time is 9.5 min.

With `O=C(Nc1ccccc1-c1ccc(Cl)cc1)c1cccnc1Cl` [Boscalid], the LC retention time was 10.5 min.

Regarding `Cc1c(N(C)C)c(=O)n(-c2ccccc2)n1C` [Aminopyrine], the LC retention time is 2.6 min.

For the compound `CCCN(CCOc1c(Cl)cc(Cl)cc1Cl)C(=O)n1ccnc1` [Prochloraz], the LC retention time was 12.2 min.

Consider `CC(Cc1ccc(C(C)(C)C)cc1)CN1CCCCC1` (stereo unspecified) [Fenpropidin], for which the LC retention time was 9.5 min.

Take `CC(C)N(C(=O)COc1nnc(C(F)(F)F)s1)c1ccc(F)cc1` [Flufenacet]: the LC retention time was 11.7 min.

Regarding `CSc1nnc(C(C)(C)C)c(=O)n1N` [Metribuzin], the LC retention time is 6.9 min.

With `Cc1cccc(C)c1N(Cn1cccn1)C(=O)C(=O)O` [Metazachlor OXA], the LC retention time is 5.5 min.

As for `Cc1ccc(NC(=O)N(C)C)cc1Cl` [Chlortoluron], the LC retention time is 8.2 min.

As to `CC(Oc1ccc(Cl)cc1Cl)C(=O)O` (stereo unspecified) [Dichlorprop], the LC retention time was 10.7 min.

As to `CC(C)c1ccc(NC(N)=O)cc1` [Isoproturon-didemethyl], the LC retention time is 8 min.

On to `CNC(=O)CSP(=S)(OC)OC` [Dimethoate], for which the LC retention time was 5.2 min.

As to `CCOCN(C(=O)CCl)c1c(C)cccc1CC` [Acetochlor], the LC retention time is 11.7 min.

As to `CC12C=CC(=O)C=C1CCC1C2C(O)CC2(C)C1CCC2(O)C(=O)CO` (stereo unspecified) [Prednisolone], the LC retention time is 8 min.

`CC(CN(C)C)CN1c2ccccc2CCc2ccccc21` (stereo unspecified) [Trimipramine]: the LC retention time was 8.7 min.

Turning to `CC(=O)Nc1c(I)c(C(=O)O)c(I)c(C(=O)NCCO)c1I` [Ioxitalamic acid], the LC retention time was 1.3 min.

As for `CCc1cccc(CC)c1N(COC)C(=O)CS(=O)(=O)O` [Alachlor ESA], the LC retention time is 7.7 min.

With `O=c1[nH]cc(F)c(=O)[nH]1` [5-Fluorouracil], the LC retention time was 1 min.

With `c1ccc(CN2CCNCC2)cc1` [1-Benzylpiperazine], the LC retention time is 1.2 min.

For the compound `COCCN(C(=O)CCl)c1c(C)cccc1C` [Dimethachlor], the LC retention time was 9.1 min.

With `CNC(=O)Oc1cc(C)c(S(C)=O)c(C)c1` (stereo unspecified) [Methiocarb-sulfoxide], the LC retention time is 4.9 min.

As to `CC1=CC(=O)NS(=O)(=O)O1` [Acesulfame], the LC retention time is 1.5 min.

For the compound `CCNc1nc(N)nc(Cl)n1` [Atrazine-desisopropyl], the LC retention time was 4.3 min.

Consider `COc1ccc(C(CN)C2(O)CCCCC2)cc1` (stereo unspecified) [N,N-Didesmethylvenlafaxine], for which the LC retention time is 6.3 min.

In the case of `CCC1OC(=O)CC(O)C(C)C(OC2OC(C)C(OC3CC(C)(O)C(O)C(C)O3)C(N(C)C)C2O)C(CC=O)CC(C)C(=O)C=CC(C)=CC1COC1OC(C)C(O)C(OC)C1OC` (stereo unspecified) [Tylosin], the LC retention time is 8.1 min.

With `Oc1ccc(Cl)cc1` [4-Chlorophenol], the LC retention time was 7.3 min.

For `CNC(C)C(O)c1ccccc1` (stereo unspecified) [Ephedrine], the LC retention time was 2.9 min.

Turning to `CCNC(=O)C(C)OC(=O)Nc1ccccc1` (stereo unspecified) [Carbetamide], the LC retention time is 6.6 min.

`Cc1cccc(C)c1N(Cn1cccn1)C(=O)CS(=O)(=O)O` [Metazachlor ESA]: the LC retention time is 5.5 min.

With `CCN(CC)C(=O)c1cccc(C)c1` [DEET], the LC retention time is 8.6 min.

For the compound `CCOCCN(C(=O)CCl)C(=C(C)C)c1ccccc1` [Pethoxamide], the LC retention time was 11.5 min.

For `CN(CC(O)CO)C(=O)c1c(I)c(NC(=O)C(CO)CO)c(I)c(C(=O)N(C)CC(O)CO)c1I` (stereo unspecified) [Iobitridol], the LC retention time was 1.6 min.

As to `Cc1cc(=O)[nH]c(C(C)C)n1` [Pyrimidinol], the LC retention time is 3.4 min.

`CNCCC(Oc1ccc(C(F)(F)F)cc1)c1ccccc1` (stereo unspecified) [Fluoxetine]: the LC retention time was 9.2 min.

As to `COc1cccc(C(=O)NN(C(=O)c2cc(C)cc(C)c2)C(C)(C)C)c1C` [Methoxyfenozide], the LC retention time is 10.9 min.

`CCNc1nc(Cl)nc(NC(C)CC)n1` (stereo unspecified) [Sebuthylazine]: the LC retention time was 9.8 min.

As for `CC(=O)Nc1c(I)c(NC(C)=O)c(I)c(C(=O)O)c1I` [Diatrizoate], the LC retention time is 1.6 min.

For the compound `CC(C)c1nc(N(C)S(C)(=O)=O)nc(-c2ccc(F)cc2)c1C=CC(O)CC(O)CC(=O)O` (stereo unspecified) [Rosuvastatin], the LC retention time was 9.2 min.

Turning to `CNC(=C[N+](=O)[O-])NCCSCc1ccc(CN(C)C)o1` [Ranitidine], the LC retention time was 1.9 min.

Consider `CCC(C(N)=O)N1CCCC1=O` (stereo unspecified) [Levetiracetam], for which the LC retention time is 3 min.

In the case of `CC1COC(Cn2cncn2)(c2ccc(Oc3ccc(Cl)cc3)cc2Cl)O1` (stereo unspecified) [Difenoconazole], the LC retention time is 14.1 min.

In the case of `CCCCC(=O)N(Cc1ccc(-c2ccccc2-c2nn[nH]n2)cc1)C(C(=O)O)C(C)C` (stereo unspecified) [Valsartan], the LC retention time is 11.2 min.

In the case of `CNC(=O)Oc1cc(C)c(SC)c(C)c1` [Methiocarb], the LC retention time was 10.4 min.

Take `CN1C2CCC1C(C(=O)O)C(OC(=O)c1ccccc1)C2` (stereo unspecified) [Benzoylecgonine]: the LC retention time is 4.6 min.

`c1ccc(C2CN3CCSC3=N2)cc1` (stereo unspecified) [Levamisole]: the LC retention time is 2.9 min.

Consider `CC1CC2C(C(O)CC3(C)C2CCC3(O)C(=O)CO)C2(C)C=CC(=O)C=C12` (stereo unspecified) [Methylprednisolone], for which the LC retention time is 9.2 min.

As to `CCNc1nc(NC(C)C)[nH]c(=O)n1` [Atrazine-2-hydroxy], the LC retention time was 4.4 min.

As to `O=C(O)c1ccccc1Nc1cccc(C(F)(F)F)c1` [Flufenamic acid], the LC retention time is 14.6 min.

For the compound `COc1cc(OC)nc(NS(=O)(=O)c2ccc(NC(C)=O)cc2)n1` [N4-Acetylsulfadimethoxine], the LC retention time was 6.3 min.

For the compound `c1ccc2n[nH]nc2c1` [1H-Benzotriazole], the LC retention time was 4.4 min.

`CS(=O)(=O)c1ccc(C(=O)C2C(=O)CCCC2=O)c([N+](=O)[O-])c1` [Mesotrione]: the LC retention time is 6.2 min.

Consider `CCNc1nc(NC(C)CC)nc(OC)n1` (stereo unspecified) [Secbumeton], for which the LC retention time is 6.7 min.

For `Cc1nnc(-c2ccccc2)c(=O)[nH]1` [Metamitron-desamino], the LC retention time is 5.1 min.

On to `CC=C1N(C)C(C)CC1(c1ccccc1)c1ccccc1` (stereo unspecified) [EDDP], for which the LC retention time is 6.5 min.

For `CCN(CC)CC(=O)Nc1c(C)cccc1C` [Lidocaine], the LC retention time was 4.2 min.
